Assay results published in ChEMBL document CHEMBL5584244, “Discovery of novel pyrrolo[2,1-c][1,4]benzodiazepine-3,11-dione (PBD) derivatives as selective HDAC6 inhibitors for the efficient treatment of idiopathic pulmonary fibrosis (IPF) in vitro and in vivo” (Eur J Med Chem, 2024).
Activity calls are given as the source filed them. The rule behind the calls is not given here.

How the values were obtained:
Histone deacetylase 4 = Histone deacetylase 4 (Homo sapiens, UniProt P56524); experiment: Inhibition of recombinant human HDAC4 using Boc-Lys (Ac)-AMC as substrate incubated for 120 mins by fluorescence analysis
Histone deacetylase 7 = molecular target: T1, Histone deacetylase 7 (Homo sapiens, UniProt Q8WUI4); experiment: Inhibition of N-terminal GST-tagged recombinant human HDAC7 (518 to end residues) expressed in baculovirus expression system using Boc-Lys (Tfa)-AMC as substrate incubated for 120 mins by fluorescence analysis
T1 sequence (Q8WUI4 whole entry): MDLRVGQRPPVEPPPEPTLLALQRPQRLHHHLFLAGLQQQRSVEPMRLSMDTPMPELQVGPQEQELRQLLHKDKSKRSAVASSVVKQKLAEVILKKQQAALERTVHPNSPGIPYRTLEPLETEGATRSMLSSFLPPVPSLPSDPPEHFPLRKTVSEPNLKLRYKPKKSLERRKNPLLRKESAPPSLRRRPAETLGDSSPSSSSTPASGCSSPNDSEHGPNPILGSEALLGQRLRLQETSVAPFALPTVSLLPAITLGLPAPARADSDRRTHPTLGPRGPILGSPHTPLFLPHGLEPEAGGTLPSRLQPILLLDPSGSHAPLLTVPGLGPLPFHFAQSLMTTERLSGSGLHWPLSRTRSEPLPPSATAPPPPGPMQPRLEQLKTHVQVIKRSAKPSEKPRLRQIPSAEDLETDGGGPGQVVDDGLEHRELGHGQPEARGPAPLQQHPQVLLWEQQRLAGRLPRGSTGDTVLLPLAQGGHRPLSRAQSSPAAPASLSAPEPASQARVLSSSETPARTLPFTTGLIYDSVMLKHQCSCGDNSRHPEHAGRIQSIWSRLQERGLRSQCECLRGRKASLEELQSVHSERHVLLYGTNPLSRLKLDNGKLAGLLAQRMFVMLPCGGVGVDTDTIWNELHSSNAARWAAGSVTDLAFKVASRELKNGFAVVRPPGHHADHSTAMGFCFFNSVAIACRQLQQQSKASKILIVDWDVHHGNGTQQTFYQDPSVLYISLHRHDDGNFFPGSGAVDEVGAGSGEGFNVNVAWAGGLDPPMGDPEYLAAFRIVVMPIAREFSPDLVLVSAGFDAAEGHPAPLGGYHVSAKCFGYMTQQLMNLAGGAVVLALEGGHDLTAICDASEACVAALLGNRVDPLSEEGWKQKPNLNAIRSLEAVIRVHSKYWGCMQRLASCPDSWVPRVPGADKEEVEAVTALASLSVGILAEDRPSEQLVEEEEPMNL

HELF = experiment: Anti-pulmonary fibrosis activity against TGF-beta1-induced HELF cells assessed as reduction in alpha-SMA protein expression incubated for 48 hrs by Western blot analysis; assay type: functional, cell-based; settings: Homo sapiens, dose 2.5-10 µM
[1] = molecular target: T2, TGF-beta receptor type-1 (Homo sapiens) (UniProt P36897); experiment: Inhibition of TGF-beta1-induced TGFbetaR1 protein phosphorylation level in HELF cells incubated for 48 hrs by Western blot analysis; assay type: cell-based; settings: dose 2.5-10 µM
T2 sequence (whole entry): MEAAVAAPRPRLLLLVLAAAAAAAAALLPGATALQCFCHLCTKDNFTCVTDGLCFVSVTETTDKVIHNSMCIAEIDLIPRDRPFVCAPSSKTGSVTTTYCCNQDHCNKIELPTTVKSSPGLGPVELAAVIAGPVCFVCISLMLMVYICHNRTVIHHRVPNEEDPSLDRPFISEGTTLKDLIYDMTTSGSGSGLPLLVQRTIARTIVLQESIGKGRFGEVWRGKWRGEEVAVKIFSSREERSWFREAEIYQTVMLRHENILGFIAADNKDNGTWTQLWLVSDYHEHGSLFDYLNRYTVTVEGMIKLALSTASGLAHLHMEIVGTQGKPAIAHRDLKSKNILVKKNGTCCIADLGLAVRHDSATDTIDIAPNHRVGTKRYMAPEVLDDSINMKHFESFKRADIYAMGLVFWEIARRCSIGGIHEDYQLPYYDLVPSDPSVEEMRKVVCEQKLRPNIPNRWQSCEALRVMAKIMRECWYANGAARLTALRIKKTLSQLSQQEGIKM

[2] = Half life in human liver microsomes at 100 uM by LC-MS/MS analysis; assay type: ADME, Microsome
[3] = Intrinsic clearance in human liver at 100 uM incubated upto 60 mins by LC-MS/MS analysis; assay type: ADME, tissue-based; settings: read-out: CLH
Mus musculus [4] = experiment: Anti-pulmonary fibrosis activity in bleomycin-induced C57BL/6 mouse model of pulmonary fibrosis assessed as increase in body weight at 50 to 100 mg/kg, ip for 3 weeks; assay type: functional, organism-based; settings: dose 50-100 mg/kg
Mus musculus [5] = experiment: Anti-pulmonary fibrosis activity in bleomycin-induced C57BL/6 mouse model of pulmonary fibrosis assessed as recovering mental state at 50 to 100 mg/kg, ip for 3 weeks; assay type: functional, organism-based; settings: dose 50-100 mg/kg
Mus musculus [6] = experiment: Anti-pulmonary fibrosis activity in bleomycin-induced C57BL/6 mouse model of pulmonary fibrosis assessed as decrease structural damage in lung at 50 to 100 mg/kg, ip for 3 weeks by H and E staining based fluorescence microscopic analysis; assay type: functional, organism-based; settings: dose 50-100 mg/kg
Mus musculus [7] = experiment: Anti-pulmonary fibrosis activity in bleomycin-induced C57BL/6 mouse model of pulmonary fibrosis assessed as decrease in collapse of the alveolar cavity in lung at 50 to 100 mg/kg, ip for 3 weeks by H and E staining based fluorescence microscopic analysis; assay type: functional, organism-based; settings: dose 50-100 mg/kg
Mus musculus [8] = experiment: Anti-pulmonary fibrosis activity in bleomycin-induced C57BL/6 mouse model of pulmonary fibrosis assessed as decrease in disturbance of alveolar structure in lung at 50 to 100 mg/kg, ip for 3 weeks by H and E staining based fluorescence microscopic analysis; assay type: functional, organism-based; settings: dose 50-100 mg/kg
Mus musculus [9] = experiment: Anti-pulmonary fibrosis activity in bleomycin-induced C57BL/6 mouse model of pulmonary fibrosis assessed as decrease in fibrosis scars in lung at 50 to 100 mg/kg, ip for 3 weeks by H and E staining based fluorescence microscopic analysis; assay type: functional, organism-based; settings: dose 50-100 mg/kg
Mus musculus [10] = experiment: Anti-pulmonary fibrosis activity in bleomycin-induced C57BL/6 mouse model of pulmonary fibrosis assessed as decrease in collagen level in lung at 50 to 100 mg/kg, ip for 3 weeks by Masson trichrome staining based microscopic analysis; assay type: functional, organism-based; settings: dose 50-100 mg/kg
Mus musculus [11] = experiment: Anti-pulmonary fibrosis activity in bleomycin-induced C57BL/6 mouse model of pulmonary fibrosis assessed as decrease in collagen fiber deposition in lung at 50 to 100 mg/kg, ip for 3 weeks by Masson trichrome staining based microscopic analysis; assay type: functional, organism-based; settings: dose 50-100 mg/kg

Sequence of Histone deacetylase 4 (P56524 whole entry): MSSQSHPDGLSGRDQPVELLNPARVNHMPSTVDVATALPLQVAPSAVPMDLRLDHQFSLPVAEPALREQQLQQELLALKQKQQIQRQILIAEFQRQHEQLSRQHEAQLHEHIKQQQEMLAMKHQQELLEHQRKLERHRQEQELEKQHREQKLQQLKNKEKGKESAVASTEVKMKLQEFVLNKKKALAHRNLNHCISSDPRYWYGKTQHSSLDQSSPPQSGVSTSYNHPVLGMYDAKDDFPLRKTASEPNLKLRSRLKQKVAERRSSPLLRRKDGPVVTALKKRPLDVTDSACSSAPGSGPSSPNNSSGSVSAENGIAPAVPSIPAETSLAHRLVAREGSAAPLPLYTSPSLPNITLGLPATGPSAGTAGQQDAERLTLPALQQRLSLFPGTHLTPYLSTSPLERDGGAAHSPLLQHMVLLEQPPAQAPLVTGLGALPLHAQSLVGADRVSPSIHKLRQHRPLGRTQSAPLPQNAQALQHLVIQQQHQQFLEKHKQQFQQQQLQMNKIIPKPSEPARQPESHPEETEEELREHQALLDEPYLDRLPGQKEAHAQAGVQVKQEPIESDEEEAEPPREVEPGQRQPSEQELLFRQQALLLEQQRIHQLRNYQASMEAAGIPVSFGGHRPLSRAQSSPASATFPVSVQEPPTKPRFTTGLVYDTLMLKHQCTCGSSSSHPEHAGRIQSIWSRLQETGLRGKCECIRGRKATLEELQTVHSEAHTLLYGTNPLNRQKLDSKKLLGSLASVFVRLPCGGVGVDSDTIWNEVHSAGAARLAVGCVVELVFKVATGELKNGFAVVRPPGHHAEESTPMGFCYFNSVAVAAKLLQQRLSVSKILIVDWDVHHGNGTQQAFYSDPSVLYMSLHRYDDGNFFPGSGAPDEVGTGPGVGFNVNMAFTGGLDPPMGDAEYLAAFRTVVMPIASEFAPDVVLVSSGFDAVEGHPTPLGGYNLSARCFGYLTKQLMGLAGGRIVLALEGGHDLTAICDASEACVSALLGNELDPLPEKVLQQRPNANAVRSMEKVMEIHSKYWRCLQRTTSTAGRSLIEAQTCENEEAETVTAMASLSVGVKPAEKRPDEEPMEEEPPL

Compound: CC(=O)O.O=C(NO)c1ccc(CN2C(=O)[C@@H]3CCCN3Cc3ccccc32)cc1
- IC50 (Histone deacetylase 4): 0.847 µM
- IC50 (Histone deacetylase 7): 0.00894 µM
- Activity (HELF): Dose-Dependent Effect
- inhibition [1]: Dose-Dependent Effect
- half-life at 100 µM [2]: > 2.42 h
- CLint scaled at 100 µM [3]: < 8.6 mL/min/kg
- Activity (Mus musculus [4]): Active
- Activity (Mus musculus [5]): Active
- Activity (Mus musculus [6]): Active
- Activity (Mus musculus [7]): Active
- Activity (Mus musculus [8]): Active
- Activity (Mus musculus [9]): Active
- Activity (Mus musculus [10]): inactive
- Activity (Mus musculus [11]): Active
